Measured values taken from publication PMC3545992, “Trisubstituted Pyrazolopyrimidines as Novel Angiogenesis Inhibitors” (PLoS ONE, 2013).

Assays:
HUVECs [1] = assay: Tube formation assay on Matrigel; type: cell-based, human; details: 10 µM, 16 h
Protocol: Figure 6 LGR 1404, 1406 and 1407 inhibit tube formation at 10 µM. HUVECs were seeded onto a matrix of growth-factor reduced Matrigel^TM in the presence or absence of the respective concentration of the compounds. After 16 h of incubation, images were taken and tube characteristics were quantified. A: Number of tubes (n = 3, mean ± SEM, * p<0.05, One Way ANOVA, Dunnett). B: Number of branching points (n = 3, mean ± SEM, * p<0.05, One Way ANOVA, Dunnett). C: Tube total length (n = 3, mean ± SEM, * p<0.05, One Way ANOVA, Dunnett). D: Representative images of the tube formation assay and the software based tube recognition (structures identified as tubes are blue) in a control (Co, left panel) and after treatment with LGR 1406 (10 µM, right panel).
Pre-cooled BD Matrigel^TM Matrix Growth Factor Reduced (GFR) (BD Biosciences, Heidelberg, Germany) was filled into the lower compartment of μ-slide Angiogenesis wells (ibidi GmbH, Martinsried, Germany) on ice. For polymerization of the Matrigel^TM Matrix, the slides were incubated at 37°C for 30 min. 12,000 HUVECs/well were seeded onto the Matrigel^TM and stimulated for 16 h. The extent of tube formation was determined by light microscopy using the TILLvisON system. Quantitative image analysis of tube length, number of branching points and tube number was performed with a software tool from Wimasis GmbH, Munich.

[2] = system: chorioallantoic membrane (CAM); assay: Chorioallantoic membrane (CAM) assay, VEGF-induced vessel formation; type: in vivo, white leghorn; details: 250 nmol compound with 2.5 ng VEGF per cellulose disc, 24 h
Protocol: Fertilized white leghorn eggs were incubated for 72 h at 37°C in humidified atmosphere. After transferring the growing embryo into Petri dishes, a second incubation period of 72 h followed. At day 6, cellulose discs with 2.5 ng VEGF/250 nmol compound were placed on the membrane. 2.5 ng VEGF/DMSO was used as control. Pictures were taken after 24 h of stimulation. Representative images out of at least three experiments are shown.
Fertilized white leghorn eggs were incubated for 72 h at 37°C in humidified atmosphere. After transferring the growing embryo into a Petri dish, a second incubation period of 72 h followed. At day 6, two cellulose discs, one with 2.5 ng VEGF (VEGF 165, human recombinant from PeproTech GmbH, Hamburg, Germany)/250 nmol compound and the other with 2.5 ng VEGF/DMSO as control were placed on one CAM. After 24 h of stimulation, the vascular structure in the stimulated areas of the CAM was visualized using a stereomicroscope and a CCD camera (Olympus, Munich, Germany) and pictures were taken. The cellulose disks were produced as follows: after preparing a cellulose solution (2.5% hydroxyethyl cellulose, 2% polyvinylpyrrolidone (PVP 17), 2% polyethylene glycol (PEG 400) in water), the mixture was autoclaved, resulting in a homogenized, clear solution. For each disk, 200 μl of the warm solution were filled into the preformed circles of the lid of a 96 well plate and allowed to polymerize under a laminar air flow for 48 h. Finally, the cellulose disks were removed using tweezers and stored in a sterile Petri dish until use.

HUVECs [3] = assay: Quantification of lamellipodia and Rac1 immunocytochemistry in migrating cells; type: cell-based, human; details: 8 h migration; for reduction of formation of lamellipodia: 10 µM; for recruitment of Rac1 to lamellipodia (in words): immunofluorescence
Protocol: A: Confluent layers of HUVECs were scratched and the cells were allowed to migrate for 8 h in the presence or absence of the respective concentration of the compounds, until clear lamellipodia formation was visible in the control. The actin cytoskeleton was then stained with rhodamin-phalloidine and fluorescence images (10x magnification) of the scratches were taken. Left panel: For quantitative evaluation of lamellipodia formation, cells with prominent lamellipodia and ruffles were counted in relation to the number of cells at the scratch front (n = 3, mean ± SEM, * p<0.05, One Way ANOVA, Dunnett). Right panel: Representative images of the scratch front (f-actin, 40x magnification). B: Cells treated like in A were fixed and stained for f-actin (red), cortactin (green) and Rac1 (white). Representative images out of three experiments are shown.
Confluent layers of HUVECs were scratched and stimulated in 8-well μ-slides as described above. The cells were allowed to migrate for 8 h in the presence or absence of the respective concentration of the compounds, until clear lamellipodia formation was visible in the control. The actin cytoskeleton was then stained with rhodamine-phalloidin (Life Technologies, Darmstadt, Germany) and fluorescence images of the scratches were taken in 10x magnification with the Zeiss LSM 510 META. For quantitative evaluation of lamellipodia formation, cells with prominent lamellipodia and ruffles were counted with ImageJ (Cell Counter plug-in by Kurt De Vos) in relation to the total number of cells at the scratch front. The ratio was calculated as number of lamellipodia-positive cells per 100 cells at scratch front. In the same setting immunofluorescence staining was performed. Fixed cells were permeabilized for 2 min with 0.1% Triton X-100 in PBS. Cells were washed and unspecific binding was blocked with 0.2% BSA in PBS for 15 min. Thereafter, cells were incubated with primary antibody (cortactin: rabbit polyclonal, 1∶100, Cell Signaling, and Rac1: mouse monoclonal, 1∶100, Upstate) in 0.2% BSA/PBS over night at 4°C. After three washing steps with PBS, the specimen were incubated with the corresponding AlexaFluor® -labeled secondary antibodies for 30 min at room temperature. Finally, the slides were again washed three times with PBS (5 min), embedded in FluorSave^TM Reagent mounting medium and covered with 8 mm ×8 mm glass cover slips.

HUVECs [4] = assay: Scratch assay (migration assay); type: cell-based, human; details: 10 µM, 16 h, HUVECs
Protocol: A: HMEC-1 cells were seeded in the same density as for the proliferation assay and treated with the respective compound at 30 µM for 72 h to test whether reduced cell numbers in the proliferation assay are due to inhibition of proliferation or to excessive cell death. No increase of detached, obviously dead or propidium iodide positive cells was detected. B and C: Confluent layers of HUVECs were scratched and the cells were allowed to migrate for 16 h in the presence or absence of 10 µM of the compounds. B: The columns indicate the area re-covered by migrating cells (n = 3, mean ± SEM, * p<0.05, One Way ANOVA, Dunnett). C: Scratches at endpoint, representative images taken out of three experiments.
HUVECs were seeded into a 24-well plate. After reaching confluency, cells were scratched using a 100 µl pipette tip. The wounded monolayers were washed twice with PBS containing Ca^2+/Mg^2+; then growth medium containing the indicated concentration of the compounds was added. After 16 h of migration, cells were washed and subsequently fixed with 4% paraformaldehyde. […] Images were taken using the TILLvisON system (TILL Photonics GmbH, Gräfelfing, Germany) and a CCD-camera connected to an Axiovert 200 microscope (Zeiss, Oberkochen, Germany). Quantitative image analysis of the cell covered area was done by Wimasis GmbH, Munich. A completely closed scratch was set as 100% migration, the area of the original open scratch was set as 0% migration.

Compound	reduction of number of branching points (HUVECs [1])	reduction of total tube length (HUVECs [1])	reduction of tube number (HUVECs [1])	tube and branching point numbers and total tube length (in words) (HUVECs [1])	reduction of total tube length (HUVECs [1]; listed as LGR1407)	VEGF-induced vessel formation [2]	reduction of formation of lamellipodia (HUVECs [3])	recruitment of Rac1 to lamellipodia (in words) (HUVECs [3])	effect on endothelial cell migration (in words) (HUVECs [4])	reduction of endothelial cell migration (HUVECs [4])
CC(C)c1n[nH]c2c(NCc3ccccc3)nc(NC3CCC(N)CC3)nc12 (centres unmarked) [LGR 1407, 5-[(4-E-aminocyclohexyl)amino]-7-benzylamino-3-isopropyl-1(2)H-pyrazolo[4,3-d]pyrimidine]	35%	about 30%	about 30%	significant reduction	30%	completely inhibit	67%	inhibit recruitment of Rac1 to lamellipodia	significantly decrease	31%
CC[C@H](CO)Nc1nc(NCc2ccccc2)c2n[nH]c(C(C)C)c2n1 [LGR 1404, 7-Benzylamino-5(R)-[(1-hydroxymethyl)propylamino]-3-isopropyl-1(2)H-pyrazolo[4,3-d]pyrimidine]		25%		significant reduction		completely inhibit	54%	inhibit recruitment of Rac1 to lamellipodia	significantly decrease	27%
CC(C)c1n[nH]c2c(NCc3ccccc3)nc(NC3CCCCC3N)nc12 (centres unmarked) [LGR 1406, 5-[(2-E/Z-aminocyclohexyl)amino]-7-benzylamino-3-isopropyl-1(2)H-pyrazolo[4,3-d]pyrimidine]	56%	56%	42%	significant reduction		completely inhibit	67%	inhibit recruitment of Rac1 to lamellipodia	significantly decrease	51%
